Results on 26 molecules are retold here after patent US7704995B2 (Exelixis, Inc., priority 2003, dated 2010).

This assay deals with T1, Chk1 (Homo sapiens, UniProt O14757).
T1 construct: purchased Upstate Biotechnology
T1 sequence (O14757 1-476): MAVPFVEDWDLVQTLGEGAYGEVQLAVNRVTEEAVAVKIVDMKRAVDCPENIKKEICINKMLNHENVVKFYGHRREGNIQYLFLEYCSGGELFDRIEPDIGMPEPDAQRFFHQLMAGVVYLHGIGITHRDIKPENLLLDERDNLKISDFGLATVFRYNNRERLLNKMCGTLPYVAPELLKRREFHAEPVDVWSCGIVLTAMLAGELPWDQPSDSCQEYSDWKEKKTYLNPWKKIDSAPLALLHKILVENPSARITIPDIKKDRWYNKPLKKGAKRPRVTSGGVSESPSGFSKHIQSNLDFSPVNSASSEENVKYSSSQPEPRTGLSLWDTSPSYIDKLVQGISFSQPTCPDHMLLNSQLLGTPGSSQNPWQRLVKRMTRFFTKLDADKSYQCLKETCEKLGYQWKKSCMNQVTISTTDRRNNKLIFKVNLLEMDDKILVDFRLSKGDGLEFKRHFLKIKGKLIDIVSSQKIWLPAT
Briefly: Chk1 kinase assay: incorporation of γ-33P ATP into immobilized myelin basic protein. The note with it: Table 11; Chk1 only; read-out: Chk1 IC50. It counts as biochemical. In a few lines:
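Enzyme activity is measured as γ-33P transfer from ATP onto immobilized MBP over 1 h at room temperature, with Chk1 at 10 nM/10 μM unlabeled ATP and Chk2 at 20 nM/30 μM unlabeled ATP. Compounds are tested in 1% DMSO.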
Usually IC50 stands for the concentration at which inhibition is half-maximal. For the molecule `Nc1ncc(-c2cccc(CN[C@H]3CCc4ccccc43)c2)nc1-c1nc(-c2ccncc2)n[nH]1` [Example 723, 5-(3-{[(1S)-2,3-dihydro-1H-inden-1-ylamino]methyl}phenyl)-3-(3-pyridin-4-yl-1H-1,2,4-triazol-5-yl)pyrazin-2-amine], the IC50 is less than 0.05 µM. With `Nc1ncc(-c2cccc(CO)c2)nc1-c1nc([C@@H]2CCCNC2)n[nH]1` [Example 724, [3-(5-amino-6{3-[(3R)-piperidin-3-yl]-1H-1,2,4-triazol-5-yl}pyrazin-2-yl)phenyl]methanol], the IC50 was in the range of 0.05 to 1 µM. For `Nc1ncc(-c2cccc(CO)c2)nc1-c1nc([C@H]2CCCNC2)n[nH]1` [Example 725, [3-(5-amino-6-{3[(3S)-piperidin-3-yl]-1H-1,2,4-triazol-5-yl}pyrazin-2-yl)phenyl]methanol] the value was 0.05 to 1 µM. With `Nc1ncc(-c2cccc(C(=O)N[C@@H]3c4ccccc4C[C@@H]3O)c2)nc1C(=O)N[C@H]1CCNC1` [Example 726, 3-amino-6-[3-({[(1R,2S)-2-hydroxy-2,3-dihydro-1H-inden-1-yl]amino}carbonyl)phenyl]-N-[(3S)-pyrrolidin-3-yl]pyrazine-2-carboxamide] the figure was less than 0.05 µM. As for `CCN1CC[C@H](NC(=O)c2nc(-c3cccc(C(=O)N[C@H]4c5ccccc5C[C@H]4O)c3)cnc2N)C1` [Example 727, 3-amino-N-[(3S)-1-ethylpyrrolidin-3-yl]-6-[3-({[(1S,2R)-2-hydroxy-2,3-dihydro-1H-inden-1-yl]amino}carbonyl)phenyl]pyrazine-2-carboxamide], the 50% inhibitory concentration (IC50) fell in the range of 1 to 10 µM. Take `CC(C)(C)OC(=O)N1CCCC(NC(=O)c2nc(-c3cccc(C(=O)N[C@H]4CCc5ccccc54)c3)cnc2N)C1` (stereo partly drawn) [Example 728, 1,1-dimethylethyl 3-({[3-amino-6-(3-{[(1S)-2,3-dihydro-1H-inden-1-ylamino]carbonyl}phenyl)pyrazin-2-yl]carbonyl}amino)piperidine-1-carboxylate]: the IC50 is not below 10 µM. For the molecule `Nc1ncc(-c2cccc(C(=O)N[C@H]3CCc4ccccc43)c2)nc1C(=O)NC1CCCNC1` (stereo partly drawn) [Example 729, 3-amino-6-(3-{[(1S)-2,3-dihydro-1H-inden-1-ylamino]carbonyl}phenyl)-N-piperidin-3-ylpyrazine-2-carboxamide], the IC50 was less than 0.05 µM. In the case of `CCN1CCCC(NC(=O)c2nc(-c3cccc(C(=O)N[C@H]4CCc5ccccc54)c3)cnc2N)C1` (stereo partly drawn) [Example 730, 3-amino-6-(3-{[(1S)-2,3-dihydro-1H-inden-1-ylamino]carbonyl}phenyl)-N-(1-ethylpiperidin-3-yl)pyrazine-2-carboxamide], the 50% inhibitory concentration (IC50) lay within 0.05 to 1 µM.

Take `CCN1CC[C@H](NC(=O)c2nc(-c3cccc(C(=O)N[C@@H]4c5ccccc5C[C@@H]4O)c3)cnc2N)C1` [Example 731, 3-amino-N-[(3S)-1-ethylpyrrolidin-3-yl]-6-[3-({[(1R,2S)-2-hydroxy-2,3-dihydro-1H-inden-1-yl]amino}carbonyl)phenyl]pyrazine-2-carboxamide]: the IC50 is 0.05 to 1 µM. With `CCN1CCCC(c2nnc(-c3nc(-c4cccc(CO)c4)cnc3N)[nH]2)C1` (centres unmarked) [Example 732, (3-{5-amino-6-[5-(1-ethylpiperidin-3-yl)-4H-1,2,4-triazol-3-yl]pyrazin-2-yl}phenyl)methanol] the figure was 1 to 10 µM; with `CCN1CCCC(c2nnc(-c3nc(-c4cccc(CN[C@H]5CCc6ccccc65)c4)cnc3N)[nH]2)C1` (stereo partly drawn) [Example 733, 5-(3-{[(1S)-2,3-dihydro-1H-inden-1-ylamino]methyl}phenyl)-3-[5-(1-ethylpiperidin-3-yl)-4H-1,2,4-triazol-3-yl]pyrazin-2-amine], 0.05 to 1 µM; with `CCn1nc(-c2nc(-c3cccc(C(=O)N[C@@H]4CCc5ccccc54)c3)cnc2N)nc1C1CCCNC1` (stereo partly drawn) [Example 734, 3-[5-amino-6-(1-ethyl-5-piperidin-3-yl-1H-1,2,4-triazol-3-yl)pyrazin-2-yl]-N-[(1R)-2,3-dihydro-1H-inden-1-yl]benzamide], 0.05 to 1 µM. For `Cn1nc(-c2nc(-c3cccc(C(=O)N[C@H]4CCc5ccccc54)c3)cnc2N)nc1C1CCCNC1` (stereo partly drawn) [Example 735, 3-(5-amino-6-(1-methyl-5-piperidin-3-yl-1H-1,2,4-triazol-3-yl)pyrazin-2-yl]-N-[(1S)-2,3-dihydro-1H-inden-1-yl]benzamide] the value was 0.05 to 1 µM; for `CN1CCCC(c2n[nH]c(-c3nc(-c4cccc(CO)c4)cnc3N)n2)C1` (centres unmarked) [Example 736, (3-{5-amino-6-[3-(1-methylpiperidin-3-yl)-1H-1,2,4-triazol-5-yl]pyrazin-2-yl}phenyl)methanol], 1 to 10 µM. `CN1CCCC(c2n[nH]c(-c3nc(-c4cccc(CN[C@H]5CCc6ccccc65)c4)cnc3N)n2)C1` (stereo partly drawn) [Example 737, 5-(3-{[(1S)-2,3-dihydro-1H-inden-1-ylamino]methyl}phenyl)-3-[3-(1-methylpiperidin-3-yl)-1H-1,2,4-triazol-5-yl]pyrazin-2-amine]: the IC50 lay within 0.05 to 1 µM. For `COc1ccc(CNC(=O)c2cccc(-c3cnc(N)c(C(=O)N[C@H]4CCN(C(=O)OC(C)(C)C)C4)n3)c2)cc1` [Example 738, 1,1-dimethylethyl (3S)-3-{[(3-amino-6-{3-[({[4-(methyloxy)phenyl]methyl}amino)carbonyl]phenyl}pyrazin-2-yl)carbonyl]amino}pyrrolidine-1-carboxylate] the value was 0.05 to 1 µM; for `CC(C)(C)OC(=O)N1CC[C@H](NC(=O)c2nc(-c3cccc(C(=O)NCc4ccc(OC(F)(F)F)cc4)c3)cnc2N)C1` [Example 739, 1,1-dimethylethyl (3S)-3-({[3-amino-6-(3-{[({4-[(trifluoromethyl)oxy]phenyl}methyl)amino]carbonyl}phenyl)pyrazin-2-yl]carbonyl}amino)pyrrolidine-1-carboxylate], 0.05 to 1 µM. On to `CC(C)(C)OC(=O)N1CC[C@H](NC(=O)c2nc(-c3cccc(C(=O)NCc4c(F)cccc4Cl)c3)cnc2N)C1` [Example 740, 1,1-dimethylethyl (3S)-3-[({3-amino-6-[3-({[(2-chloro-6-fluorophenyl)methyl]amino}carbonyl)phenyl]pyrazin-2-yl}carbonyl)amino]pyrrolidine-1-carboxylate], for which the IC50 lay in the range of 1 to 10 µM. With `CSc1ccc(CNC(=O)c2cccc(-c3cnc(N)c(C(=O)N[C@H]4CCN(C(=O)OC(C)(C)C)C4)n3)c2)cc1` [Example 741, 1,1-dimethylethyl (3S)-3-{[(3-amino-6-{3-[({[4-(methylthio)phenyl]methyl}amino)carbonyl]phenyl}pyrazin-2-yl)carbonyl]amino}pyrrolidine-1-carboxylate] the figure was 1 to 10 µM.

Regarding `CC(C)(C)OC(=O)N1CC[C@H](NC(=O)c2nc(-c3cccc(C(=O)NC4Cc5ccccc5C4)c3)cnc2N)C1` [Example 742, 1,1-dimethylethyl (3S)-3-{[(3-amino-6-{3-[(2,3-dihydro-1H-inden-2-ylamino)carbonyl]phenyl}pyrazin-2-yl)carbonyl]amino}pyrrolidine-1-carboxylate], the 50% inhibitory concentration (IC50) fell in the range of 0.05 to 1 µM.

Take `COc1ccc(CNC(=O)c2cccc(-c3cnc(N)c(C(=O)N[C@H]4CCNC4)n3)c2)cc1` [Example 743, 3-amino-6-{3-[({[4-(methyloxy)phenyl]methyl}amino)carbonyl]phenyl}-N-[(3S)-pyrrolidin-3-yl]pyrazine-2-carboxamide]: the IC50 lay within 0.05 to 1 µM. With `Nc1ncc(-c2cccc(C(=O)NCc3ccc(OC(F)(F)F)cc3)c2)nc1C(=O)N[C@H]1CCNC1` [Example 744, 3-amino-N-[(3S)-pyrrolidin-3-yl]-6-(3-{[({4-[(trifluoromethyl)oxy]phenyl}methyl)amino]carbonyl}phenyl)pyrazine-2-carboxamide] the figure was less than 0.05 µM; with `Nc1ncc(-c2cccc(C(=O)NC3Cc4ccccc4C3)c2)nc1C(=O)N[C@H]1CCNC1` [Example 745, 3-amino-6-{3-[(2,3-dihydro-1H-inden-2-ylamino)carbonyl]phenyl}-N-[(3S)-pyrrolidin-3-yl]pyrazine-2-carboxamide], 0.05 to 1 µM.

Take `Nc1ncc(-c2cccc(C(=O)NCc3c(F)cccc3Cl)c2)nc1C(=O)N[C@H]1CCNC1` [Example 746, 3-amino-6-[3-({[(2-chloro-6-fluorophenyl)methyl]amino}carbonyl)phenyl]-N-[(3S)-pyrrolidin-3-yl]pyrazine-2-carboxamide]: the IC50 lay within 0.05 to 1 µM. With `CSc1ccc(CNC(=O)c2cccc(-c3cnc(N)c(C(=O)N[C@H]4CCNC4)n3)c2)cc1` [Example 747, 3-amino-6-{3-[({[4-(methylthio)phenyl]methyl}amino)carbonyl]phenyl}-N-[(3S)-pyrrolidin-3-yl]pyrazine-2-carboxamide] the figure was less than 0.05 µM; with `N=C(NNc1ccncc1)c1nc(-c2cccc(C(=O)N[C@@H]3CCc4ccccc43)c2)cnc1N` [Example 748, 3-{5-amino-6-[imino(2-pyridin-4-ylhydrazino)methyl]pyrazin-2-yl}-N-[(1R)-2,3-dihydro-1H-inden-1-yl]benzamide], 1 to 10 µM.
